In US9486423B2, “Redox-directed chelators targeting intracellular metal ions” (THE ARIZONA BOARD OF REGENTS ON BEHALF OF THE UNIVERSITY OF …, priority 2014, dated 2016):

Legend:
[1] = test system: SK-N-MC (neuroepithelioma) cells; assay: MTT assay of cell viability, SK-N-MC; format: cell-based; conditions: 48 h exposure, in the presence of human holotransferrin
Protocol: (§1) The present inventors have also investigated the antiproliferative activity of series of pro-chelators and chelators of the invention towards human cell lines. MTT assays of cell viability (Table 1) were performed on two cancer cell lines, neuroepithelioma SK-N-MC and breast adenocarcinoma MDA-MB-231, which are well studied in the context of iron deprivation. The established antiproliferative iron chelator DFO was used as a control and its toxicity profiles compared well to literature ones for these cell lines. Viability measurements were conducted in the presence of human holotransferrin in order to load intracellular iron pools and assess antiproliferative activity related to intracellular iron deprivation.
(§2) MDA-MB-231 (ATCC® HTB-26™) breast adenocarcinoma cells and SK-N-MC (ATCC® HTB-10™) neuroepithelioma cells were cultured under a 5% CO2 humidified atmosphere at 37° C. in Eagle's Minimal Essential Medium (EMEM) supplemented with 10% fetal bovine serum (FBS), glutamine (2 mM), sodium pyruvate (1 mM), sodium bicarbonate ([…]), penicillin (100 units/mL), streptomycin (100 μg/mL) and 1.25 μM (1 mg/10 mL) human holo-transferrin (Aldrich) prior to use. Jurkat T lymphocytes (ATCC® T1B-152™) were cultured at 37° C. under a 5% CO2 humidified atmosphere in RPMI 1640 media supplemented with 10% FBS, penicillin (5 mg/ml) and streptomycin (1 mg/ml), and maintained at a density lower than 2.0×10^6 cells/mL.

[2] = test system: MDA-MB-231 (breast adenocarcinoma) cells; assay: MTT assay of cell viability, MDA-MB-231; format: cell-based; conditions: in the presence of human holotransferrin
Protocol: as §1, §2

[3] = test system: MDA-MB-231 cells; assay: Intracellular ROS generation, oxidation of DCFH2 to DCF; format: cell-based, human; conditions: 30 min incubation, compared to H2O2 (100 μM) positive control
Protocol: FIG. 8 is a bar graph showing intracellular generation of ROS monitored through the oxidation of DCFH2 to fluorescent DCF (ex: 485 nm, em: 528 nm). MDA-MB-231 cells were treated with DCFH2-DA (10 μM, 10 min), washed and then incubated with test compounds (concentrations as shown, 30 min). H2O2 (100 μM) was employed as a positive control. Measurements were conducted in triplicate and reported as average±standard deviation.
The in-vitro results above were confirmed in cultures of MBA-MD-231 breast carcinoma cells using a fluorescence-based assay of ROS generation. Added to the growth media, cell-permeable dihydrodichlorofluorescein diacetate (DCFH2-DA) was hydrolized intracellularly to trap the probe dihydrodichlorofluorescein (DCFH2), which was oxidized by several ROS to give the bright fluorescent product dichlorofluorescein. […] FIG. 8.

[4] = Reduction by GSH monitored by UV-visible absorption spectroscopy; format: physicochemical; conditions: GSH 11.0 mM
Protocol: FIG. 2 is a graph showing reduction of (TC1-S)2 (9.0 μM) by GSH (11.0 mM) as monitored by UV-visible absorption spectroscopy in buffered aqueous solution (50 mM PIPES, pH 7.4) at 25° C. Spectral changes during the reduction of (TC1-S)2 (Line 2, […]) to TC1-SH (Line 1) by GSH (11.0 mM). The reaction goes to substantial completion within 2 h.
The reduction of (TC1-S)2 can be monitored in vitro by UV-visible absorption spectroscopy. FIG. 2.

[5] = Equilibration in GSH/GSSG redox buffer solutions at different half-cell potentials; format: physicochemical; conditions: half-cell potentials of −220 mV or lower (vs SHE); 12.5 μM disulfide, 11-13 mM total glutathione, 2 h
Protocol: FIG. 3 is a graph showing the fraction of reduced chelator TC1-SH obtained from UV-visible absorption data in GSH/GSSG redox buffer solutions at different half-cell potentials. Total ([GSH]+[GSSG]) was maintained at 11-13 mM, whereas initial [(TC1-S)2] was 12.5 μM. Samples were allowed to equilibrate for 2 h. Data points are plotted as average of triplicate measurements±standard deviation.
In order to estimate the speciation of the prochelator/chelator system in solutions containing glutathione levels reflecting biologically relevant conditions, disulfide (TC1-S)2 was allowed to equilibrate in a series of redox buffer mixtures. The half-cell potentials for the solutions were calculated based on the concentrations of GSH and GSSG and they were selected to include values from those typically associated to proliferating cells (−240 mV vs SHE) to those found in necrotic cells (−180 mV). […] FIG. 3. As such, in this model of intracellular conditions containing micromolar chelation system and millimolar glutathione buffer, the chelation system after equilibration was found prevalently in its reduced iron-binding form at glutathione half-cell potentials that are characteristic of proliferating and malignant cells.

[6] = test system: MRC-5 (normal lung fibroblast) cells; assay: MTT assay of cell viability, MRC-5; format: cell-based, human; conditions: for IC50: MTT assay, 72 h exposure; for toxicity in normal lung fibroblasts (comparison): normal cells
Protocol: as §1
Because normal cells divide at a lower rate, MTT assays were performed after exposures of 48 h and also 72 h (Table 1).

[7] = test system: ribonucleotide reductase (RNR) tyrosyl radical in Jurkat cells; assay: Whole-cell EPR of the tyrosyl radical of ribonucleotide reductase; format: cell-based, human; conditions: 50 μM
Protocol: FIG. […] Experimental conditions: microwave frequency, 9.338 GHz; microwave power, 2 mW; magnetic field modulation amplitude, 0.5 mT; temperature, 30° K.
EPR data were also used to examine the effect of chelation system on the tyrosyl radical that characterizes the active site of ribonucleotide reductase (RNR), the iron-dependent enzyme that is believed to be essential in DNA biosynthesis.

[8] = test system: MDA-MB-231 cells; assay: Effect of NAC supplementation on toxicity (viability assay); format: cell-based, human; conditions: 10.0 μM compound, 48 h, after 6 h NAC
Protocol: FIG. 4 is a bar graph showing the effect of N-acetyl cystein (NAC) supplementation on the toxicity of DFO (10 μM) and (TC1-S)2 (10 μM). MDA-MB-231 cells were incubated with NAC for 6 h before treatment with DFO (10.0 μM) or (TC1-S)2 (10.0 μM) for 48 h. Percent viability is expressed relative to control treated with DMSO and averaged over three experiments±percent standard deviation.
The control of reducing conditions employed in vitro in the experiments summarized above cannot be achieved in cell culture; nevertheless, the intracellular concentration of GSH can be increased by supplementing with N-acetyl cysteine (NAC), a precursor required for GSH biosynthesis. […] FIG. 4.

[9] = test system: Jurkat cells; assay: Calcein-AM fluorescence assay of intracellular iron binding; format: cell-based, human; conditions: suspended Jurkat cells loaded with calcein; SIH added after (TC1-S)2
From the text: FIG. 5 is a graph showing displacement of paramagnetic ions and restoration of calcein fluorescence by addition of chelators (TC1-S)2 and SIH at the indicated times and final concentrations in suspended Jurkat cell cultures. Fluorescence intensity at 517 nm (excitation, 488 nm) is plotted as the difference from the initial values before any addition. DMSO concentration was kept constant in all solutions.
Intracellular iron binding was first examined using calcein-AM, the acetoxymethyl ester of a fluorescein-based sensor of metal ions in biological specimens. Trapped intracellularly upon hydrolysis of the ester groups by esterases, calcein coordinates iron and possibly other (far less abundant) cations (e.g., Cu(II) and Zn(II)). Calcein stabilizes ferric iron coordination and this paramagnetic ion quenches considerably its fluorescence emission.

[10] = Cyclic voltammetry in DMF; format: physicochemical; conditions: glassy carbon electrode
From the text: FIG. 10 is a cyclic voltammograms of disulfides 1a-c at a glassy carbon electrode in DMF with (n-Bu4N)(PF6) as supporting electrolyte. Data collected at a 100 mVS^−1 sweep rate using Ag/AgNO3 reference electrode and a platinum wire auxiliary electrode.
The reduction of disulfides 1a-c was investigated by electrochemical methods in N,N-dimethylformamide. FIG. 10. The collected cyclic voltammograms present irreversible cathodic peaks that are characteristic of aromatic disulfide reduction and correspond to the two-electron reductive process leading to formation of two thiolate ions. Consistent with reported electronic effects of substituents in aromatic disulfides, peak reduction potentials of compounds 1a-c vary considerably with the substitution on the thiosemicarbazone unit. […] These experiments established that electronic effects of the partially conjugated chelating units modulate the thermodynamic drive to reduction of disulfide constructs. Similarly, it is expected that an electron withdrawing group substituent on the phenyl ring itself (e.g., R^3 and/or R^4 in Formula I) will also result in lower reduction potential. As used herein, the term “electron withdrawing group” refers to any substituent that draws electron density away from a given center (e.g., disulfide or thiol group in compounds 1a-c and 2a-c, respectively). […]

[11] = Iron coordination with Fe(BF4)2.6H2O; format: binding; conditions: organic solvents and buffered aqueous solutions
From the text: Consistent with the modest coordinating ability of disulfide linkages in general and the conformational restraints they impose on the joint thiosemicarbazone units in this case, disulfides 1a-c behave as masked pro-chelators of low iron coordinating ability.
Conversely, thiols 2a-c react readily with Fe(BF4)2.6H2O in organic solvents and in buffered aqueous solutions. From reactions in THF, iron complexes 3a-c were isolated by crystallization and characterized by high-resolution mass spectrometry and elemental analysis. Complexes 3a (FIG. 11) and 3b were also characterized by single crystal X-ray diffraction analysis.

[12] = clinical trials terminated; cited from earlier work

Q: Which results are given for `NC(=S)NN=Cc1ccccc1SSc1ccccc1C=NNC(N)=S` [Compound 1a]?
A: IC50 [1]: 8.91 ± 0.09 µM; IC50 ([2]; 48 h exposure): 22.07 ± 0.04 µM

Q: What does the source list for `S=C(NN=Cc1ccccc1SSc1ccccc1C=NNC(=S)Nc1ccccc1)Nc1ccccc1` [Compound 1c]?
A: intracellular generation of ROS (DCF fluorescence) [3]: did not elicit significant turn-on response; time to substantial completion of reduction to TC1-SH ([4]; 9.0 μM disulfide, 50 mM PIPES, pH 7.4, 25° C.): ≤ 2 h; conversion of disulfide to thiol ([4]; neutral buffered aqueous solution, 9.0 μM): converted substantially quantitatively; IC50 [1]: 6.81 ± 0.17 µM; estimated equilibrium percentage of thiol [5]: greater than 80%; IC50 [6]: 30.91 ± 0.02 µM; toxicity in normal lung fibroblasts (comparison) [6]: significantly less toxic than its corresponding thiol 2c; toxicity in normal lung fibroblasts (comparison) ([6]; listed as (TC1-S)2): significantly less toxic than DFO; RNR tyrosyl radical EPR signal ([7]; 1 h): decrease in RNR signal amplitude; effect of increasing NAC on toxicity [8]: more susceptible; calcein fluorescence intensity [9]: concentration-dependent increase in fluorescence intensity; ease of disulfide reduction (peak reduction potential) [10]: easier to reduce compared to analogues 1a and 1b; IC50 ([2]; 48 h exposure): 4.59 ± 0.06 µM; IC50 ([2]; 48 h exposure, listed as (TC1-S)2): 4.6 µM

Q: Which results are given for `S=C(NN=Cc1ccccc1S)Nc1ccccc1` [Compound 2c]?
A: intracellular generation of ROS (DCF fluorescence) [3]: did not elicit significant turn-on response; stability of thiol in solution ([4]; neutral buffered aqueous solution): over 6 h; iron coordination [11]: readily coordinates Fe(II) ions; IC50 [1]: 5.19 ± 0.17 µM; IC50 [6]: 15.08 ± 0.02 µM; IC50 ([2]; 48 h exposure): 15.01 ± 0.05 µM

Q: Which adverse side effects [12] does the source give for `NC(=S)NN=Cc1ncccc1N` [Compound 3-AP, 3-Aminopyridine-2-carboxaldehyde thiosemicarbazone] here?
A: Its adverse side effects is “methemoglobinemia”.

Q: With `CC(=O)N(O)CCCCCNC(=O)CCC(=O)N(O)CCCCCNC(=O)CCC(=O)N(O)CCCCCN` [DFO, desferrioxamine, reference compound] as the compound, how does the IC50 ([1]; SK-N-MC) read?
A: Its IC50 is 10.02 ± 0.06 µM.

Q: And the IC50 ([6]; Homo sapiens, MRC5)?
A: The IC50 was 8.04 ± 0.03 µM.

Q: What about the “RNR tyrosyl radical EPR signal” value ([7]; 3 h) of the same compound?
A: The value was “loss of signal”.

Q: And the “effect of increasing NAC on toxicity” value [8]?
A: Its value is “not affected significantly”.

Q: What about the IC50 ([2]; Homo sapiens, MDA-MB-231, 48 h, 48 h exposure) of the same compound?
A: Its IC50 is 17 µM.

Q: What about the IC50 ([2]; MDA-MB-231, 48 h exposure) of the same compound?
A: The IC50 was 17.05 ± 0.05 µM.

Q: With `O=C(NN=Cc1ccccc1O)c1ccncc1` [SIH, salicylaldehyde isonicotinoyl hydrazone, reference compound] as the compound, how does the calcein fluorescence intensity [9] read?
A: The calcein fluorescence intensity was “further increased fluorescence intensity”.
